Reference: ChEMBL document CHEMBL1201862, “PubChem BioAssay data set” (2004)
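Each compound was tested at five concentrations against cells in 96-well plates for 48 hours. Abbreviation: GI50, concentration required for 50% inhibition of growth.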 Activity calls are given as the source filed them. Cut-off read from the data, not from the text of the source: active = GI50 up to about 1.1 µM and inactive = higher.

What was measured:
Assay in all cases: inhibition of tumour cell growth, NCI panel, 48 h
HOP-92 = test system: HOP-92
A549 = test system: A549
SR = test system: SR
RPMI-8226 = test system: RPMI-8226
MDA-N = test system: MDA-N
SF-539 = test system: SF-539
HT-29 = test system: HT-29
SK-MEL-2 = test system: SK-MEL-2
U-251 = test system: U-251
Hs-578T = test system: Hs-578T
MCF7 = test system: MCF7
Malme-3M = test system: Malme-3M
SK-MEL-5 = test system: SK-MEL-5
OVCAR-8 = test system: OVCAR-8
HL-60 = test system: HL-60
NCI-H23 = test system: NCI-H23
EKVX = test system: EKVX
IGROV-1 = test system: IGROV-1
HOP-62 = test system: HOP-62
PC-3 = test system: PC-3

Measured: GI50

C[C@]1(CO)[C@H]2CC[C@@]34C=C[C@@](CO)(CC[C@H]3[C@]2(C)CC[C@H]1O)C4
inactive: HOP-92 > 100 µM | A549 > 100 µM | SR 24.3 µM | RPMI-8226 27 µM | MDA-N 34.2 µM | SF-539 96.2 µM | HT-29 > 100 µM | SK-MEL-2 > 100 µM | U-251 63 µM | Hs-578T 55.7 µM | MCF7 59.4 µM | Malme-3M 20.5 µM | SK-MEL-5 12.9 µM | OVCAR-8 31.1 µM | HL-60 37.4 µM | NCI-H23 40.4 µM | EKVX 29.4 µM | IGROV-1 25.4 µM | HOP-62 62.2 µM | PC-3 44.3 µM

C[n+]1c(-c2ccc(/C=N/NC(=O)c3ccc(C(=O)N/N=C/c4ccc(-c5cn6ccccc6[n+]5C)cc4)cc3)cc2)cn2ccccc21
inactive: HOP-92 > 100 µM | A549 > 100 µM | SR > 100 µM | RPMI-8226 > 100 µM | MDA-N > 70 µM | SF-539 > 84.9 µM | HT-29 > 100 µM | SK-MEL-2 > 100 µM | U-251 > 100 µM | Hs-578T > 100 µM | MCF7 > 100 µM | Malme-3M > 54.6 µM | SK-MEL-5 > 67.9 µM | OVCAR-8 > 100 µM | HL-60 > 100 µM | NCI-H23 > 100 µM | EKVX > 100 µM | IGROV-1 > 100 µM | HOP-62 > 100 µM | PC-3 > 100 µM

OC1CN=C2c3ccccc3C(O)(c3ccc(Cl)cc3)N2C1 (stereo not given)
inactive: HOP-92 22 µM | A549 > 100 µM | SR 38.1 µM | RPMI-8226 50.7 µM | MDA-N 35.4 µM | SF-539 32.2 µM | HT-29 32.9 µM | SK-MEL-2 > 100 µM | U-251 66.7 µM | Hs-578T 88.5 µM | MCF7 48.2 µM | Malme-3M 31.7 µM | SK-MEL-5 > 10 µM | OVCAR-8 77.4 µM | HL-60 44.4 µM | NCI-H23 53.3 µM | EKVX > 100 µM | IGROV-1 87.9 µM | HOP-62 55.5 µM | PC-3 41.9 µM

CC(=O)N1C2=CCCC2(C)c2ccccc21 (stereo not given)
inactive: HOP-92 26.9 µM | A549 37.7 µM | SR > 100 µM | RPMI-8226 10.7 µM | MDA-N > 100 µM | SF-539 > 100 µM | HT-29 63.5 µM | SK-MEL-2 > 100 µM | U-251 > 100 µM | Hs-578T > 100 µM | MCF7 > 100 µM | Malme-3M 67.5 µM | SK-MEL-5 41.1 µM | OVCAR-8 > 100 µM | HL-60 23.7 µM | NCI-H23 86.9 µM | EKVX > 100 µM | IGROV-1 63.5 µM | HOP-62 > 100 µM | PC-3 52.4 µM

C1CSCCSCCCSCCSCCCSCCSCCCSCCSC1
inactive: HOP-92 > 100 µM | A549 > 100 µM | SR > 100 µM | RPMI-8226 86.1 µM | MDA-N > 100 µM | SF-539 > 100 µM | HT-29 > 100 µM | SK-MEL-2 > 100 µM | U-251 > 100 µM | Hs-578T > 100 µM | MCF7 > 100 µM | Malme-3M > 100 µM | SK-MEL-5 > 100 µM | OVCAR-8 > 100 µM | HL-60 > 100 µM | NCI-H23 > 100 µM | EKVX > 100 µM | IGROV-1 > 100 µM | HOP-62 > 100 µM | PC-3 69.3 µM

O=C(O)c1cc(/N=N/c2ccc([N+](=O)[O-])cc2)ccc1O
inactive: HOP-92 18 µM | A549 32.6 µM | SR 29.4 µM | RPMI-8226 21.1 µM | MDA-N 43.9 µM | SF-539 33.3 µM | HT-29 28.8 µM | SK-MEL-2 26.5 µM | U-251 21.6 µM | Hs-578T 37.6 µM | MCF7 30.8 µM | Malme-3M 42.6 µM | SK-MEL-5 34.6 µM | OVCAR-8 33.4 µM | HL-60 29 µM | NCI-H23 40.2 µM | EKVX 19 µM | IGROV-1 40.2 µM | HOP-62 40.6 µM | PC-3 33.7 µM

CC1(C)CC(C#Cc2ccccc2)CC(C)(C)N1O
inactive: HOP-92 15.2 µM | A549 22.5 µM | SR 52.7 µM | RPMI-8226 5.18 µM | MDA-N 15.8 µM | SF-539 20.6 µM | HT-29 14.2 µM | SK-MEL-2 20.7 µM | U-251 23.9 µM | Hs-578T 19 µM | MCF7 16.5 µM | Malme-3M 16.8 µM | SK-MEL-5 16.1 µM | OVCAR-8 20.7 µM | HL-60 14.8 µM | NCI-H23 15.7 µM | EKVX 23.6 µM | IGROV-1 29.9 µM | HOP-62 16.4 µM | PC-3 11.6 µM

COc1nc(N=P(c2ccccc2)(c2ccccc2)c2ccccc2)cc(=O)[nH]1
inactive: HOP-92 > 100 µM | A549 > 100 µM | SR > 100 µM | RPMI-8226 > 100 µM | MDA-N > 100 µM | SF-539 > 100 µM | HT-29 > 100 µM | SK-MEL-2 > 100 µM | U-251 > 100 µM | Hs-578T > 100 µM | MCF7 > 100 µM | Malme-3M > 100 µM | SK-MEL-5 > 100 µM | OVCAR-8 > 100 µM | HL-60 > 100 µM | NCI-H23 > 100 µM | EKVX > 100 µM | IGROV-1 > 100 µM | HOP-62 > 100 µM | PC-3 > 100 µM
